Results reported in US8518443B2, “Opioid agonist formulations with releasable and sequestered antagonist” (Purdue Pharma, L.P., priority 2001, dated 2013).
Where a name gives a salt, the structure may show the parent alone. Read-outs that look alike come from different tables or passages of the source.

Key:
[1] = format: in vivo
From the text: In certain preferred embodiments, the opioid agonist is hydrocodone or oxycodone.

[2] = after oral doses; cited from earlier work
[3] = cited from earlier work
[4] = tested on: opioid receptors; conditions: daily dosage of 50 mg; cited from earlier work
[5] = following oral administration; cited from earlier work
[6] = in comparison to a 15 mg dose of hydrocodone

Row | Molecule | Equianalgesic dose, Calculated Dose [1, 6] | also measured
1 | COc1ccc2c3c1O[C@H]1[C@@H](O)C=C[C@H]4[C@@H](C2)N(C)CC[C@@]341 [Codeine] | 90.0 mg | –
2 | COc1ccc2c3c1OC1C(=O)CC[C@H]4[C@@H](C2)N(C)CC[C@]314 (stereo partly drawn) [Hydrocodone, 4,5-epoxy-3-methoxy-17-methylmorphinan-6-one] | 15.0 mg | –
3 | CN1CC[C@]23CCCC[C@H]2[C@H]1Cc1ccc(O)cc13 [Levorphanol] | 1.8 mg | –
4 | CCC(=O)C(CC(C)N(C)C)(c1ccccc1)c1ccccc1 (stereo not drawn) [Methadone] | 9.0 mg | –
5 | CN1CC[C@]23c4c5ccc(O)c4O[C@H]2[C@@H](O)C=C[C@H]3[C@H]1C5 [Morphine] | – | Equianalgesic dose, Calculated Dose ([1]; in vivo): 27.0 mg
6 | COc1ccc2c3c1O[C@H]1C(=O)CC[C@@]4(O)[C@@H](C2)N(C)CC[C@]314 [Oxycodone, 4,5-expoxy-14-hydroxy-3-methoxy-17-methylmorphinan-6-one] | 13.5 mg | –
7 | C[C@H]1[C@H]2Cc3ccc(O)cc3[C@]1(C)CCN2CC1CC1 [cyclazocine] | – | duration of action [2]: ~24 h
8 | O=C1CC[C@@]2(O)[C@H]3Cc4ccc(O)c5c4[C@@]2(CCN3CC2CC2)[C@H]1O5 [hydrochloride salt of naltrexone] | – | solubility in water [3]: about 100 mg/cc
9 | O=C1CC[C@@]2(O)[C@H]3Cc4ccc(O)c5c4[C@@]2(CCN3CC2CC2)[C@H]1O5 [naltrexone] | – | blockade of the actions of parenterally administered opioids [4]: adequate clinical blockade; duration of action [2]: ~24 h; oral bioavailability [5]: 5-40%
10 | Meperidine | 135.0 mg | –
